We go through one molecule from ChEMBL document CHEMBL5728923, “Cyclin dependent kinase inhibitors” (2022).

This assay has as its target Cyclin-dependent kinase 4/cyclin D1 (Homo sapiens, UniProt P11802+P24385). Briefly: Mobility Shift Assay : The purpose CDK4/Cyclin D1 assay is to evaluate the inhibition (% inhibition, Kiapp and Ki values) in the presence of small molecule inhibitors by using a fluorescence based microfluidic mobility shift assay. CDK4/Cyclin D1 catalyzes the production of ADP from ATP that accompanies the phosphoryl transfer to the substrate peptide 5-FAM-Dyrktide (5-FAM-[…]) (SEQ ID NO:1). The mobility shift assay electrophoretically separates the fluorescently labeled peptides (substrate and phosphorylated product) following the kinase reaction. Both substrate and product are measured and the ratio of these values is used to generate % Conversion of substrate to product by the LabChip EZ Reader. […] The reaction was stopped after 195 minutes by the addition of 50 μL of 30 mM EDTA. Ki determinations were made from a plot of the fractional velocity as a function of inhibitor concentration fit to the Morrison equation with the enzyme concentration as a variable. The assay is classed as protein-complex assay.

pKi: −log10 of the molar value.

Cyclin-dependent kinase 4/cyclin D1, sequence (P11802 whole entry): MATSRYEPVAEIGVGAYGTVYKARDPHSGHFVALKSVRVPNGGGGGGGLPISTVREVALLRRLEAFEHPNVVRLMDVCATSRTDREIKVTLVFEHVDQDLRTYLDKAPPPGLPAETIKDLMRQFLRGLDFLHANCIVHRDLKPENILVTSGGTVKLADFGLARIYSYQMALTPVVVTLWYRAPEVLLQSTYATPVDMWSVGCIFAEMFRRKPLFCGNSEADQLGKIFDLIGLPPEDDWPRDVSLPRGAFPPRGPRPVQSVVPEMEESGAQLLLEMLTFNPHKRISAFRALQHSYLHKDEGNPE
Cyclin-dependent kinase 4/cyclin D1, sequence (P24385 whole entry): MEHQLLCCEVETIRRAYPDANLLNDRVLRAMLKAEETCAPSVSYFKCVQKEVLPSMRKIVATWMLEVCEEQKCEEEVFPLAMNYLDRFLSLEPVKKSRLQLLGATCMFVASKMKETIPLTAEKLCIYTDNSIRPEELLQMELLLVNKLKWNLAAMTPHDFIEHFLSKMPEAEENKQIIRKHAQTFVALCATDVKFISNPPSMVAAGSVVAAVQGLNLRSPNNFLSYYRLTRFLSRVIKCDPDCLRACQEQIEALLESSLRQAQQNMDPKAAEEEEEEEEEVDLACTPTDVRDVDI

For orientation: pKi means −log10 of the Ki, conventionally taken in molar units. For `CC(C)n1c([C@H](C)O)nc2c(F)cc(-c3cc(N[C@@H]4CCN(S(C)(=O)=O)C[C@H]4O)ncc3Cl)cc21` (single isomer, unassigned), the pKi was 10.00.
